Assay results: patent publication US8552037B2, “Tricyclic compound and pharmaceutical use thereof” (Takeda Pharmaceutical Company Limited, priority 2006, dated 2013)

Target: human melatonin 1 receptors (human MT1 receptors) (Homo sapiens (Human), UniProt P48039)
Test: Melatonin receptor binding assay, 2-[125I] Iodomelatonin, CHO-hMelR7 cell membrane fraction
Details: binding inhibition of 2-[125I] Iodomelatonin, CHO-hMelR7 membranes, 25° C., 2.5 hr
Method: (§1) Melatonin Receptor Binding Assay
(1) Preparation of CHO-hMelR7 Cells Expressing Human Melatonin 1 Receptors
(§2) (3) Preparation of Cell Membrane Fraction of CHO Cell (CHO-hMelR7 and CHO-hMT2) Stably Expressing Human MT1 and MT2 Receptors
(§3) CHO-hMelR7 and CHO-hMT2 cells were plated using Cellfactory (Nunc, #170009) under the conditions of 1×10^8 cells/2000 mL/flask. The cells were grown to confluent, and recovered by the following method. As the medium for CHO-hMelR7 and CHO-hMT2, MEM α containing 10% FBS and penicillin/streptomycin was used. […] of geneticin was added to the medium for CHO-hMT2.
(§4) The medium was discarded, cells were washed twice with 200 mL of EDTA/PBS(−), 200 mL of EDTA/PBS(−) was further added, and the cells were stood still at room temperature for 20 min until they were released. […] The mixture was further centrifuged at 1,500 rpm for 10 min at 4° C., and the obtained pellets were suspended in 20 mL of ice-cooled homogenizing buffer [10 mM NaHCO3, 5 mM EDTA, Protease inhibitor Complete (Roche), pH 7.4]. The cell suspension was homogenized 3 times using a polytron homogenizer at 20,000 rpm for 30 sec. The obtained homogenate was centrifuged (2,000 rpm, 10 min, 4° C.) using a low speed cooling centrifuge. The supernatant was recovered in an ultracentrifugation tube and ultracentrifuged (40,000 rpm, 60 min, 4° C.) using an ultracentrifuge (Beckman, L-90K). To the obtained pellets was added a suspending buffer [50 mM Tris-HCl, 1 mM EDTA, Protease inhibitor Complete (Roche), pH 7.4], and the pellets were suspended by pipetting. The protein concentration of this suspension was measured, diluted to 2 mg/mL to give cell membrane fractions of CHO-hMelR7 and CHO-hMT2 cells. […] Protein was quantified using BCA protein assay kit (Pierce) with BSA as the standard.
(§5) (4) Preparation of Membrane Fraction Suspension
(§6) Immediately before use, the membrane fractions of CHO-hMelR7 and CHO-hMT2 cells of the above-mentioned (3) were diluted 20-fold with assay buffer (50 mM Tris-HCl, pH 7.7).
(§7) Iodomelatonin (#NEX236, PerkinElmer) was diluted with the assay buffer to 400 pM for MT1 and 1 nM for MT2.
(§8) Then, a test compound (compound solution diluted with DMSO to 200-fold of the final measurement concentration) was added by 2 μL. 2 μL of DMSO was added to each well of the total binding control section, and 100 μM cold Melatonin solution (Sigma, diluted with DMSO to 100 μM) was added to each well of the nonspecific binding control section by 2 μL. Then, the membrane fraction suspension (100 μL) was added. […] Iodomelatonin solution of the above-mentioned (5) was added to each well mentioned above by 20 μL, and a binding reaction was carried out at 25° C. for 2.5 hr in a micromixer (TAITEC, Bioshaker M.BR-024).
(§9) Using a cell harvester (PerkinElmer), the binding reaction mixture in each well of the 96-well plate was transferred to a treated (immersed in 50 mM Tris, pH 7.7 in advance) filter plate (UniFilter GF/C, PerkinElmer) and filtered. After filtration, the plate was washed 4 times with the assay buffer, and dried in a dryer (42° C.) for 2 hr or more. 25 μL of a liquid scintillator (MicroScint O, PerkinElmer) was added to each well of the filter plate after drying, and the luminescence of scintillator was measured by TopCount (PerkinElmer) for 1 min.
(§10) Specific binding is a value obtained by subtracting nonspecific binding from the total binding. The binding inhibitory activity of the test compound is shown by the ratio of the value obtained by subtracting the measurement value when the test compound was added from the total binding, to the specific binding.

Chain of human melatonin 1 receptors (human MT1 receptors) (P48039 whole entry): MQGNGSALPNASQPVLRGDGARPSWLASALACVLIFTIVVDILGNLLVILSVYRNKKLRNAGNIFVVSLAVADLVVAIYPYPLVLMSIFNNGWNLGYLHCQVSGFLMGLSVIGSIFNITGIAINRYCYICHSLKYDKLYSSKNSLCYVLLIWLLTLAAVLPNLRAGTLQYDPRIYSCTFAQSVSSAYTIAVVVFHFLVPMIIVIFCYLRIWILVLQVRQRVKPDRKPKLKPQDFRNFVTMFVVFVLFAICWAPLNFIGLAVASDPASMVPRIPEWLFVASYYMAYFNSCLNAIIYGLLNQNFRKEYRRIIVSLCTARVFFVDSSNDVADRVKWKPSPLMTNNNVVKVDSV

| IC50 | Compound |
| --- | --- |
| 0.057 nM | CC(=O)NCC[C@@H]1CCc2ccc3nc(C)oc3c21 [Example 12, (S)-N-[2-(2-Methyl-7,8-dihydro-6H-indeno[5,4-d][1,3]oxazol-8-yl)ethyl]acetamide] |
| 0.03 nM | CCC(=O)NCC[C@@H]1CCc2ccc3nc(C)oc3c21 [Example 15, (S)-N-[2-(2-Methyl-7,8-dihydro-6H-indeno[5,4-d][1,3]oxazol-8-yl)ethyl]propionamide] |
| 0.15 nM | CC(=O)NCCC1CCc2ccc3nc(C)sc3c21 (stereo not shown) [Example 19, N-[2-(2-Methyl-7,8-dihydro-6H-indeno[5,4-d][1,3]thiazol-8-yl)ethyl]acetamide] |
| 0.038 nM | CC(=O)NCC[C@@H]1CCc2ccc3nc(C)sc3c21 [Example 20, (S)-N-[2-(2-Methyl-7,8-dihydro-6H-indeno[5,4-d][1,3]thiazol-8-yl)ethyl]acetamide] |
| 0.54 nM | COc1nc2ccc3c(c2o1)C(CCNC(C)=O)CC3 (stereo not shown) [Example 38, N-[2-(2-Methoxy-7,8-dihydro-6H-indeno[5,4-d][1,3]oxazol-8-yl)ethyl]acetamide] |
| 0.095 nM | Cc1nc2ccc3c(c2o1)C(CCNC(=O)C(F)(F)F)CC3 (stereo not shown) [Example 45, 2,2,2-Trifluoro-N-[2-(2-methyl-7,8-dihydro-6H-indeno[5,4-d][1,3]oxazol-8-yl)ethyl]acetamide] |

Target: human melatonin 2 receptors (human MT2 receptors) (Homo sapiens (Human), UniProt P49286)
Test: Melatonin receptor binding assay, 2-[125I] Iodomelatonin, CHO-hMT2 cell membrane fraction
Details: binding inhibition of 2-[125I] Iodomelatonin, CHO-hMT2 membranes, 25° C., 2.5 hr
Method: as §1
(2) Preparation of CHO-hMT2 Cells Expressing Human Melatonin 2 Receptors
CHO-K1 cells (ATCC, #CCL-61) were plated at the concentration of 1.5×10^5 cells/cm^2 in a 6 well plate (ASAHI TECHNO GLASS), and cultured under the conditions of 37° C., 5% CO2 for 24 hr.
as §2, §3, §4, §5, §6, §7, §8, §9, §10

Chain of human melatonin 2 receptors (human MT2 receptors) (P49286 whole entry): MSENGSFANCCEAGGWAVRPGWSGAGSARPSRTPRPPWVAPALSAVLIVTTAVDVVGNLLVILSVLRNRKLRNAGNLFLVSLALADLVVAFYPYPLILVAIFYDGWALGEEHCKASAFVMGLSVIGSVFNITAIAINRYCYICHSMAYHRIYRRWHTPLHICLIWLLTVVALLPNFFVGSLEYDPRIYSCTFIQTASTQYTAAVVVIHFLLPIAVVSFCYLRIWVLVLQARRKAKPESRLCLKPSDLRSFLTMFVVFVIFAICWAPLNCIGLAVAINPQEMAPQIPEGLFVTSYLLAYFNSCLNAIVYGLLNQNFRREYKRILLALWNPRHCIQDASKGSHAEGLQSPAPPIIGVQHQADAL

| IC50 | Compound |
| --- | --- |
| 0.13 nM | CC(=O)NCC[C@@H]1CCc2ccc3nc(C)oc3c21 [Example 12, (S)-N-[2-(2-Methyl-7,8-dihydro-6H-indeno[5,4-d][1,3]oxazol-8-yl)ethyl]acetamide] |
| 0.049 nM | CCC(=O)NCC[C@@H]1CCc2ccc3nc(C)oc3c21 [Example 15, (S)-N-[2-(2-Methyl-7,8-dihydro-6H-indeno[5,4-d][1,3]oxazol-8-yl)ethyl]propionamide] |
| 0.28 nM | CC(=O)NCCC1CCc2ccc3nc(C)sc3c21 (stereo not shown) [Example 19, N-[2-(2-Methyl-7,8-dihydro-6H-indeno[5,4-d][1,3]thiazol-8-yl)ethyl]acetamide] |
| 0.12 nM | CC(=O)NCC[C@@H]1CCc2ccc3nc(C)sc3c21 [Example 20, (S)-N-[2-(2-Methyl-7,8-dihydro-6H-indeno[5,4-d][1,3]thiazol-8-yl)ethyl]acetamide] |
| 0.28 nM | COc1nc2ccc3c(c2o1)C(CCNC(C)=O)CC3 (stereo not shown) [Example 38, N-[2-(2-Methoxy-7,8-dihydro-6H-indeno[5,4-d][1,3]oxazol-8-yl)ethyl]acetamide] |
| 0.14 nM | Cc1nc2ccc3c(c2o1)C(CCNC(=O)C(F)(F)F)CC3 (stereo not shown) [Example 45, 2,2,2-Trifluoro-N-[2-(2-methyl-7,8-dihydro-6H-indeno[5,4-d][1,3]oxazol-8-yl)ethyl]acetamide] |

System: not listed separately
Test: In vitro metabolic stability test
Type: in vitro ADME
Details: human liver microsome, NADPH production system, 37° C., 20 min incubation, HPLC-UV
Method: In Vitro Metabolic Stability Test
(1) Preparation of Analysis Sample
The necessary amounts of the analysis samples were prepared at the following composition ratio. Test compound mixture: 0.1 mol/L phosphate buffer (pH 7.4) (41 μL), control microsome (manufactured by Gentest, human lymphoblastoid cell-derived control microsome, 10 mg protein/mL) (8 μL), and test compound 0.1 mM methanol solution (1 μL). Microsome mixed solution: 0.1 mol/L phosphate buffer (pH 7.4) (9 μL), human liver microsome (manufactured by XENOTECH, H0610, 20 mg protein/mL) (1 μL), and purified water (20 μL). NADPH production system: 50 mmol/L β-NADP+ (200 μL), 500 mmol/L Glucose-6-phosphate (200 μL), 150 unit/mL Glucose-6-phosphate dehydrogenase (200 μL), 0.1 mol/L MgCl2 (1 mL), and purified water (2.4 mL).
Microsome mixed solution (30 μL) and NADPH production system (20 μL) were sequentially dispensed to each well of a 96 well plate (type 3371, Corning), and a test compound mixture (50 μL) was added. Acetonitrile (100 μL) was added before start of incubation at 37° C. or 20 min later to give samples before and after incubation. These samples were centrifuged (3,000 rpm, 10 min), and the supernatant was dispensed to a 96 well plate by about 100 μL and 2-fold diluted with purified water (100 μL). 90 μL thereof was analyzed by HPLC.
HPLC analysis Conditions • Instrument: Shimadzu LC10vp • Column: CAPCELL PAK C18 MGII (4.6×75 mm, 3 μm) • Mobile phase A: 10 mmol/L ammonium acetate:acetonitrile=9:1 • Mobile phase B: 10 mmol/L ammonium acetate:acetonitrile=1:9 • Flow rate: 1 mL/min • Column temperature: 40° C. • Detection: UV (250 nm) • Gradient: […]
(3) Data Analysis and Results
Elimination percentage was determined from the difference in the unchanged compound peak areas before and after the start of the reaction, normalized based on the reaction time and microsome concentration, and the elimination rate (%/min/mg) was calculated.

| elimination rate (%/min/mg) | Compound |
| --- | --- |
| −0.3 %/min/mg | CC(=O)NCC[C@@H]1CCc2ccc3nc(C)oc3c21 [Example 12, (S)-N-[2-(2-Methyl-7,8-dihydro-6H-indeno[5,4-d][1,3]oxazol-8-yl)ethyl]acetamide] |
| 2.6 %/min/mg | CCC(=O)NCC[C@@H]1CCc2ccc3nc(C)oc3c21 [Example 15, (S)-N-[2-(2-Methyl-7,8-dihydro-6H-indeno[5,4-d][1,3]oxazol-8-yl)ethyl]propionamide] |
| 2.4 %/min/mg | CC(=O)NCCC1CCc2ccc3nc(C)sc3c21 (stereo not shown) [Example 19, N-[2-(2-Methyl-7,8-dihydro-6H-indeno[5,4-d][1,3]thiazol-8-yl)ethyl]acetamide] |
| 2.7 %/min/mg | CC(=O)NCC[C@@H]1CCc2ccc3nc(C)sc3c21 [Example 20, (S)-N-[2-(2-Methyl-7,8-dihydro-6H-indeno[5,4-d][1,3]thiazol-8-yl)ethyl]acetamide] |
| 2.6 %/min/mg | COc1nc2ccc3c(c2o1)C(CCNC(C)=O)CC3 (stereo not shown) [Example 38, N-[2-(2-Methoxy-7,8-dihydro-6H-indeno[5,4-d][1,3]oxazol-8-yl)ethyl]acetamide] |

System: not given
Test: not given
Details: not given

| melting point | Compound |
| --- | --- |
| 126 to 128 °C | COc1nc2ccc3c(c2o1)C(CCNC(C)=O)CC3 (stereo not shown) [Example 38, N-[2-(2-Methoxy-7,8-dihydro-6H-indeno[5,4-d][1,3]oxazol-8-yl)ethyl]acetamide] |
| 104 to 106 °C | Cc1nc2ccc3c(c2o1)C(CCNC(=O)C(F)(F)F)CC3 (stereo not shown) [Example 45, 2,2,2-Trifluoro-N-[2-(2-methyl-7,8-dihydro-6H-indeno[5,4-d][1,3]oxazol-8-yl)ethyl]acetamide] |
